Measurements taken from patent publication US4226610A, “Herbicidal compounds, preparation thereof and herbicides containing the same” (Meiji Selka Kaisha, Ltd., priority 1978, dated 1980).
“Also recorded” adds a separate entry of the source.

Experiments:
[1] = test system: manna grass; experiment: Experiment 1 foliar application to naturally growing weeds; format: in vivo, Digitaria adsceudes Henr.; conditions: 2 months; also: key: -: no reproduction, namely complete suppression of reproduction; ±: remarkable suppression of reproduction; +: considerable suppression of reproduction; ++: medium supprestion of reproduction; +++: no suppression of reproduction
In short: (§1)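 Foliar spray on field weeds at 150 liter per 10 are, compounds at prescribed concentrations plus 0.1% octylphenyl polyoxyethanol. Day 21: killing index 0–5 (5 = death). Reproduction scored (-) to (+++) (- = none): cockspar grass at 2 months, chigaya, azumanezasa and warunasubi at 4 months.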

[2] = test system: cockspar grass; experiment: as above; format: in vivo, Echinochloa Crusgalli P. Beauv.; conditions: 2 months; also: key: -: no reproduction, namely complete suppression of reproduction; ±: remarkable suppression of reproduction; +: considerable suppression of reproduction; ++: medium supprestion of reproduction; +++: no suppression of reproduction
In short: as §1

[3] = test system: yabugarashi; experiment: as above; format: in vivo, Cayratia japonica Houtt.; conditions: 4 months; also: key: -: no reproduction, namely complete suppression of reproduction; ±: remarkable suppression of reproduction; +: considerable suppression of reproduction; ++: medium supprestion of reproduction; +++: no suppression of reproduction
In short: (§2)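 Read-outs were a 0–5 killing index at 21 days and a reproduction score from (-), no reproduction, to (+++), no suppression. Reproduction was read at 2 months for cockspar grass and 4 months for the other species, after foliar spraying at 150 liter per 10 are with 0.1% surfactant.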

[4] = test system: purple nutsedge; experiment: as above; format: in vivo, Cyperus rotundus L.; conditions: 4 months; also: key: -: no reproduction, namely complete suppression of reproduction; ±: remarkable suppression of reproduction; +: considerable suppression of reproduction; ++: medium supprestion of reproduction; +++: no suppression of reproduction
In short: as §2

[5] = test system: warunasubi; experiment: as above; format: in vivo, Solanum carolinensis L.; conditions: 4 months
In short: as §1

[6] = test system: hedge bindweed; experiment: as above; format: in vivo, Calystegis hederacea Wall.; conditions: 4 months
In short: as §2

[7] = test system: white clover; experiment: as above; format: in vivo, Trifolium repens L.; conditions: 4 months
In short: as §2

[8] = test system: azumanezasa; experiment: as above; format: in vivo, Pleioblastus Chino Makino; conditions: 4 months
In short: as §1

[9] = test system: chigaya; experiment: as above; format: in vivo, Imperata cylindrica Beauv.; conditions: 4 months
In short: as §1

[10] = test system: kumaichigo; experiment: Experiment 2 foliar application in Japanese cypress afforested land; format: in vivo, Rubus crataegifolius Bunge; conditions: 0.125%; after 3 months
Experimental: The detail of the assessment made in the following Experiments of the invention was as follows:
The compounds of the invention and other compounds listed in Table 4. were diluted to prescribed concentrations and sprayed to shrubs by foliar application in a Japanese cypress afforested land in an amount of 150 liter per 10 are.
After 30 days and 3 months, the killing index (0, no effect; 5, death) was determined.
The heights of plants were 50-70 cm. for Japanese cypress, about 50 cm. for chestnut, 50-90 cm. for miyakozasa, about 100 cm. for eulalia and 70-100 cm. for kumaichigo, respectively.

[11] = test system: Japanese bush cranberry; experiment: Experiment 3 foliar application to naturally growing shrubs; format: in vivo, Viburnum dilatatum Thunb.; conditions: for Reproduction-inhibiting: after 3 months
In short: (§3)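 Sprays contained 0.1% octylphenyl polyoxyethanol and compound diluted to prescribed concentrations. They were applied to the leaves of wild shrubs at a rate of 150 liter per 10 are. Damage was rated 0–5 after one and three months, and regrowth − to +++ after three months.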

[12] = test system: kiichigo; experiment: as above; format: in vivo, Rubus palmatsu Thunb. forma coptophyllus Makino; conditions: after 3 months
In short: as §3

[13] = test system: Japanese prickly ash; experiment: as above; format: in vivo, Xanthoxylum piperitum DC.; conditions: after 3 months
In short: as §3

[14] = test system: lace shrub; experiment: as above; format: in vivo, Stephanandra incisa Zabel; conditions: after 3 months
In short: as §3

[15] = test system: yamazakura; experiment: as above; format: in vivo, Prunus donarium Sieb. var. spontanae Makino; conditions: after 3 months
In short: as §3

[16] = test system: torch azalea; experiment: as above; format: in vivo, Rhododendoron Kaempferi Planch.; conditions: after 3 months
In short: as §3

[17] = test system: oak; experiment: as above; format: in vivo, Quercus serrata Thunb; conditions: after 3 months
In short: as §3

[18] = test system: weeds and shrubs; conditions: background statement; cited from earlier work
[19] = test system: eulalia; experiment: Experiment 2 foliar application in Japanese cypress afforested land; format: in vivo, Miscanthus sinensis Andress.; parameters: key: 0 = no effect, 5 = death; conditions: 0.5%; after 30 days
In short: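 Field foliar spray on shrubs in Japanese cypress afforested land at 150 liter per 10 are, with compounds at prescribed concentrations. Killing index scored from 0 (no effect) to 5 (death) at 30 days and 3 months. Plant heights ranged from about 50 to 100 cm.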

## O=C(O)CNCP(=O)(O)O [Glyphosate, N-phosphonomethylglycine]
[1]; 0.05%
  Reproduction-inhibiting effect: +++
[1]; 0.1%
  Reproduction-inhibiting effect: ++
[1]; 0.2%
  Reproduction-inhibiting effect: +
[2]; 0.05%
  Reproduction-inhibiting effect: +++
[2]; 0.1%
  Reproduction-inhibiting effect: ++
[2]; 0.2%
  Reproduction-inhibiting effect: +
[3]; 0.05%
  Reproduction-inhibiting effect: +++
[3]; 0.1%
  Reproduction-inhibiting effect: +++
[3]; 0.2%
  Reproduction-inhibiting effect: ++
[4]; 0.05%
  Reproduction-inhibiting effect: +++
[4]; 0.1%
  Reproduction-inhibiting effect: +++
[4]; 0.2%
  Reproduction-inhibiting effect: +
[5]; 0.05%
  Reproduction-inhibiting effect: +++
[5]; 0.1%
  Reproduction-inhibiting effect: +++
[5]; 0.2%
  Reproduction-inhibiting effect: +
[6]; 0.05%
  Reproduction-inhibiting effect: +++
[6]; 0.1%
  Reproduction-inhibiting effect: +++
[6]; 0.2%
  Reproduction-inhibiting effect: +++
[7]; 0.05%
  Reproduction-inhibiting effect: +++
[7]; 0.1%
  Reproduction-inhibiting effect: ++
[7]; 0.2%
  Reproduction-inhibiting effect: +
[8]; 0.05%
  Reproduction-inhibiting effect: +++
[8]; 0.1%
  Reproduction-inhibiting effect: ++
[8]; 0.2%
  Reproduction-inhibiting effect: +
[9]; 0.05%
  Reproduction-inhibiting effect: +++
[9]; 0.1%
  Reproduction-inhibiting effect: ++
[9]; 0.2%
  Reproduction-inhibiting effect: ±
[10]
  Killing index: 0.5
[11]; 0.05%
  Reproduction-inhibiting: +++
[11]; 0.1%
  Reproduction-inhibiting: +++
[11]; 0.2%
  Reproduction-inhibiting: ++
[11]; 0.2%, after 30 days
  Killing index: 1.5
[12]; 0.05%
  Reproduction-inhibiting: +++
[12]; 0.1%
  Reproduction-inhibiting: +++
[12]; 0.2%
  Reproduction-inhibiting: ++
[13]; 0.05%
  Reproduction-inhibiting: +++
[13]; 0.1%
  Reproduction-inhibiting: +++
[13]; 0.2%
  Reproduction-inhibiting: +++
[14]; 0.05%
  Reproduction-inhibiting: +++
[14]; 0.1%
  Reproduction-inhibiting: +++
[14]; 0.2%
  Reproduction-inhibiting: +++
[15]; 0.05%
  Reproduction-inhibiting: +++
[15]; 0.1%
  Reproduction-inhibiting: +++
[15]; 0.2%
  Reproduction-inhibiting: ++
[16]; 0.05%
  Reproduction-inhibiting: +++
[16]; 0.1%
  Reproduction-inhibiting: +++
[16]; 0.2%
  Reproduction-inhibiting: +++
[17]; 0.05%
  Reproduction-inhibiting: +++
[17]; 0.1%
  Reproduction-inhibiting: +++
[17]; 0.2%
  Reproduction-inhibiting: +++
[18]
  weeding effects of known herbicides in words: not so effective for broad-leaved weeds; also recorded: poor weeding effects for broadleaved weeds and shrubs

## O=C([O-])C(F)(F)C(F)F.[Na+] [sodium 2,2,3,3-tetrafluoropropionate]
[19]
  Killing index: 4.5
[11]; 0.1%
  Reproduction-inhibiting: +++
[11]; 0.2%
  Reproduction-inhibiting: +++
[11]; 0.4%
  Reproduction-inhibiting: +++
[12]; 0.1%
  Reproduction-inhibiting: +++
[12]; 0.2%
  Reproduction-inhibiting: +++
[12]; 0.4%
  Reproduction-inhibiting: +++
[13]; 0.1%
  Reproduction-inhibiting: +++
[13]; 0.2%
  Reproduction-inhibiting: +++
[13]; 0.4%
  Reproduction-inhibiting: +++
[14]; 0.1%
  Reproduction-inhibiting: +++
[14]; 0.2%
  Reproduction-inhibiting: +++
[14]; 0.4%
  Reproduction-inhibiting: +++
[15]; 0.1%
  Reproduction-inhibiting: +++
[15]; 0.2%
  Reproduction-inhibiting: +++
[15]; 0.4%
  Reproduction-inhibiting: +++
[16]; 0.1%
  Reproduction-inhibiting: +++
[16]; 0.2%
  Reproduction-inhibiting: +++
[16]; 0.4%
  Reproduction-inhibiting: +++
[17]; 0.1%
  Reproduction-inhibiting: +++
[17]; 0.2%
  Reproduction-inhibiting: +++
[17]; 0.4%
  Reproduction-inhibiting: +++
[18]
  weeding effects of known herbicides in words: effective for eulalia and bamboo grass; also recorded: not so effective for shrubs
